How the values were obtained:
human oxytocin receptor = biological target: T1, human oxytocin receptor (Homo sapiens, UniProt P30559); test: Oxytocin binding in CHO cell membranes expressing human oxytocin receptors ([3H]oxytocin radioligand); conditions: for IC50: value in parentheses, read-out: OT (IC50)
T1 construct: host or cells: CHO cells, stably transfected (pcDNA3.1 vector); membranes
T1 sequence (P30559 1-389): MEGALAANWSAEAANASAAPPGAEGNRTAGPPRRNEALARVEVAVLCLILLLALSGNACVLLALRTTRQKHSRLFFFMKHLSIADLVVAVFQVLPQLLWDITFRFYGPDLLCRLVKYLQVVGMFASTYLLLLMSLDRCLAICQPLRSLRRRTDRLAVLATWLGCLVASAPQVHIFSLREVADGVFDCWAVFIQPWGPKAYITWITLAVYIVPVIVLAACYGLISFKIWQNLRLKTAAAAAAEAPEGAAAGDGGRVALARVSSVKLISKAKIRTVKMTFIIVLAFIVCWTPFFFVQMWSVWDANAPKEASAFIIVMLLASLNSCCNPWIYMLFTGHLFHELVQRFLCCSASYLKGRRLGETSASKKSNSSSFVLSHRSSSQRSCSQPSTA
Source text: Oxytocin binding in Chinese Hamster Ovary cell membranes expressing human oxytocin receptors
Chinese Hamster Ovary (CHO) cells stably transfected with the human oxytocin (cf. T. Kimura et al., U.S. Pat. No. 5,466,584 (1995) to Rohto Pharmaceutical Co. Ltd., Osaka, Japan) were obtained from Dr. M. Thibonnier, Case Western Reserve University School of Medicine, Cleveland, Ohio.
A. Passaging and Amplification of Cells:
CHO cells transfected with the human oxytocin receptors obtained from M. Thibonnier (pcDNA3.1 vector) are allowed to grow to confluency (approx. >90%) in T-150 flasks under sterile conditions, in a cell culture medium of F-12 Nutrient Mixture (HAM) with L-glutamine (Gibco Cat. #11765-054) containing 15 mM HEPES (Gibco Cat. #15630-080), 1% antibiotic/antimycotic (add 5 mL 100×, Gibco Cat. #15240-062 per 500 mL F-12), 400 μg/mL of Geneticin (add 4 mL of 50 mg/mL per 500 mL F-12) and 10% Fetal Bovine Serum (Qualified, heat inactivated, Gibco Cat. #16140-063). The medium is removed by aspiration and the cells are washed with 10 mL of Hank's Balanced Salt solution (Gibco Cat. #14175-095). The salt solution is removed by aspiration and the cells trypsinized with 5 mL of trypsin-EDTA (0.05% trypsin, 0.53 mM EDTA-4Na, Gibco Cat. #25300-070) for 1 min The trypsin is removed by aspiration and the cells dislodged by tapping. Cell Culture medium (e.g. 30 mL for 1:30 split) is immediately added and mixed well to inactivate trypsin. 1 mL of detached cells is added to new culture flasks containing fresh Cell Culture medium (e.g. into 25 mL per T-150 flask), and mixed gently. The cells are incubated at 37° C. in 5% CO2. The medium is changed at 3 to 4 days interval (or as appropriate). The cells grow to confluency (approx. >75%-95%) within 7-8 days. All steps are done under sterile conditions.
The cells are washed twice gently with Hank's Balanced Salt solution (eg, use 10 mL per T-150 flask). The excess is removed and the cells bathed for 15-30 min. in an enzyme-free Cell Dissociation Buffer (eg, use 8 mL Hank's Based, Gibco Cat. #13150-016 per T-150 flask) until cells are loosened. The contents are transferred to centrifuge tubes (50 mL size) kept in ice bath. All subsequent steps are done at 4° C. The tubes are centrifuged at 300×g for 15 min (1380 rpm on SORVAL, Model RT6000D, using rotor for 50 mL tubes). The supernatant is discarded and the cells suspended in homogenizing buffer (10 mM Tris-HCl containing 0.25 M sucrose and 1 mM EDTA, pH 7.4) ensuring that the volume of the buffer is about ten times the volume of the cell pellet. The cells are pooled into a centrifuge tube (50 mL) and homogenized with Polytron at setting 6 for 10 sec. The homogenate is transferred into a Potter-Elvjehm homogenizer and homogenized with 3 strokes. The homogenate is centrifuged at 1500×g for 10 min at 4° C. (3100 rpm using SORVAL, model RT6000D, using rotor for 50 mL tubes). The pellet is discarded. The supernatant is centrifuged at 100,000×g for 60 min. at 4° C. (Beckman L8-80M ultracentrifuge; spin at 37,500 rpm with rotor type 70 Ti for 50 mL tubes; 38,000 rpm with type 80Ti for 15 mL tubes; or 35,800 rpm with rotor type 45Ti). The supernantant is discarded and the pellet suspended in 3 to 4 mL of Tris buffer (50 mM TRIS-HCl, pH 7.4). The protein content is estimated by the Bradford or Lowry method. The volume of the membrane suspension is adjusted with the membrane buffer (50 mM Tris-HCl containing 0.1% BSA and 0.1 mM PMSF) to give 3.0 mg/mL (or as appropriate) of protein. The membranes are aliquoted and stored at −70° C.
C. Radioligand Binding Assay:
In wells of a 96-well format microtiter plate, is added 90, 110 or 130 μL (to make up a final volume of 200 μL) of assay buffer containing 50 mM of Tris-HCl (pH 7.4), […], 1 mg % aprotinin, 1 mg % leupeptin, 2 mg % 1,10-phenanthroline, 10 mg % trypsin inhibitor, and 0.1 mM PMSF. The inhibitors are added on the day of the experiment. […]

| SMILES | melting point [°C] | IC50 (human oxytocin receptor) [nM] | inhibition at 0.1 µM (human oxytocin receptor; 100 nM, value without parentheses, read-out: OT % inhibition @ 100 nM) [%] |
| --- | --- | --- | --- |
| COc1cc(C2=CCCCC2)c(Cl)cc1C(=O)N1Cc2ccc(C(=O)N(C)CC(O)CO)n2Cc2ccccc21 (centres unmarked) [Example 4, 10-(5-Chloro-4-cyclohex-1-en-1-yl-2-methoxybenzoyl)-N-(2,3-dihydroxypropyl)-N-methyl-10,11-dihydro-5H-pyrrolo[2,1-c][1,4]benzodiazepine-3-carboxamide] | 155 to 157 | 2.07 |  |
| Cc1cc(C(=O)N2Cc3ccc(C(=O)N(C)C[C@H](O)[C@H]4OC(=O)O[C@@H]4[C@H](O)CO)n3Cc3ccccc32)ccc1C1=CCCCC1 [Example 6, 10-(4-Cyclohex-1-en-1-yl-3-methylbenzoyl)-N-((2S)-2-{(4R,5R)-5-[(1R)-1,2-dihydroxyethyl]-2-oxo-1,3-dioxolan-4-yl}-2-hydroxyethyl)-N-methyl-10,11-dihydro-5H-pyrrolo[2,1-c][1,4]benzodiazepine-3-carboxamide] | 166 to 175 | 0.96 |  |
| Cc1cc(C(=O)N2Cc3ccc(C(=O)N(C)C[C@@H]4OC(=O)O[C@H]4[C@H](O)[C@H]4COC(=O)O4)n3Cc3ccccc32)ccc1C1=CCCCC1 [Example 7, 10-(4-Cyclohex-1-en-1-yl-3-methylbenzoyl)-N-[((4S,5S)-5-{(R)-hydroxy[(4R)-2-oxo-1,3-dioxolan-4-yl]methyl}-2-oxo-1,3-dioxolan-4-yl)methyl]-N-methyl-10,11-dihydro-5H-pyrrolo[2,1-c][1,4]benzodiazepine-3-carboxamide] | 162 to 168 |  | 99 |
| COC[C@@H](OC)[C@@H](OC)[C@H](OC)[C@H](CN(C)C(=O)c1ccc2n1Cc1ccccc1N(C(=O)c1ccc(C3=CCCCC3)c(C)c1)C2)OC [Example 8, 10-(4-Cyclohex-1-en-1-yl-3-methylbenzoyl)-N-methyl-N-[(2S,3R,4R,5R)-2,3,4,5,6-pentamethoxyhexyl]-10,11-dihydro-5H-pyrrolo[2,1-c][1,4]benzodiazepine-3-carboxamide] | 68 to 83 | 13 |  |

— patent US6977254B2, “Hydroxy cyclohexenyl phenyl carboxamides tocolytic oxytocin receptor antagonists” (Wyeth, priority 2001, dated 2005)
